The inhibition is the percentage by which the read-out fell short of the control. Broadly, the IC50 is the midpoint of a concentration-inhibition curve.

The values that follow come from patent US20070037253A1, “Methods and compositions for treatment of arthritis and cancer” (priority 2003, published 2007).

The structures appear in SMILES notation. Values joined by “and” are separate entries in the source; they are usually repeats but may differ in a detail not shown here. Equal values may be shown once. Where a SMILES comes first, the peptide text is derived from it.

Holding throughout (type): biochemical
For assay [1], the target named is T1, MMP-2 (Homo sapiens, UniProt P08253).
T1 construct: from tissue; host or cells: human synovial fluid
T1 sequence (P08253 110-660): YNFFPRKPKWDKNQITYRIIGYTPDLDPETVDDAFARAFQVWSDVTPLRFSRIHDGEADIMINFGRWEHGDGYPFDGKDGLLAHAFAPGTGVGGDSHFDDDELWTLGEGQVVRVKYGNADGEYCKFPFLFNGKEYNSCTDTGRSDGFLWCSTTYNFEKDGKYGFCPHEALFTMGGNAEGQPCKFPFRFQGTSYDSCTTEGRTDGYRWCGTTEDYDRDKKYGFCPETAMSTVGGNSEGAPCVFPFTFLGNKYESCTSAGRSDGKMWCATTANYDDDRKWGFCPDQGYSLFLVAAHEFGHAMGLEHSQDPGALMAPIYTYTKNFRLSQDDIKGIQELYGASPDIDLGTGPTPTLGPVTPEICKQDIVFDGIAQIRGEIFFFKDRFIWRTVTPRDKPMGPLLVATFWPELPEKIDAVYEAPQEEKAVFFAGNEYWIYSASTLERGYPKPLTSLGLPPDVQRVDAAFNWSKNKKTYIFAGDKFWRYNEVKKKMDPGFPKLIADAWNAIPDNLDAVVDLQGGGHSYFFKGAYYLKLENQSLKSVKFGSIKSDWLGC
Kind of assay: Gelatin zymography of human synovial fluid pre-incubated with inhibitors. As to conditions: 5 or 10 μM, pre-incubated 37° C. 1 h. As for the experimental part: (A) Samples containing human synovial fluid (5 μL) and 5 or 10 μM of peptides were pre-incubated at 37° C. for 1 h in Tris-HCl buffer prior to electrophoresis on 10% SDS-PAGE gel containing gelatin (0.1%). […] (B) The mean density (OD/mm2)±SD (n=3), representing MMP-2 activity, obtained by scanning the zymograms using the GS-710 calibrated imaging densitometer (Bio Rad, USA).
Gelatin zymography: human synovial fluid, purified human recombinant MMP-2 and -9 or APMA-activated concentrated culture supernatant samples (10 μL) was mixed (1:1) with Laemmli sample buffer, loaded on 4% acrylamide stacking gel and electrophoresed (120 V) at 4° C. on a 10% acrylamide-resolving minigel containing 0.1% gelatin. After electrophoresis for 1 h, the gels were soaked in 2.5% Triton X-100 on a shaker for 1 h, changing the solution after 30 min, to eliminate SDS. After overnight incubation in zymogen activation buffer [50 mM Tris-HCl, pH 7.5, containing 10 mM CaCl2 and 5 mM ZnCl2] at 37° C., the gels were rinsed in distilled water, and stained for 3 hr with […], after which clear bands of digested gelatin were clearly visible. The gels were briefly rinsed in distilled water and scanned by the Bio-Rad GS-710 Calibrated Imaging Densitometer.

Assay [2] has as its system collagenase I (MMP-1). Kind of assay: Collagenase activity assay, collagen thin film (collagen type II substrate). As to conditions: for Collagenase (% Inhibition): collagen thin film, collagen type II, peptide concentration not given. As for the experimental part: Collagenase activity was assayed by collagen thin film method using collagen type II as substrate. IC50 values were graphically determined from the inhibition curves, constructed on the basis of the in vitro results of collagenase assays. Results are the mean±SD of 3 separate experiments done in triplicates. (•), P-NT.II; (□), PIP [59-67] dimer; (Δ), PIP [59-67} monomer; (∇), LY 315920.
Collagenase activity assay: Using collagen thin film as the substrate, a quantitative method was established to measure the enzymatic activity of the MMPs (principally collagenase). Collagen type II (Sigma) solution (4 μL, 3 mg/mL in 0.012 N HCl) was added to each well of 96-well plates and precipitated by slowly increasing the pH with 4 μL of H2O and 8 μL of 0.012 N NaOH. The plate was dried at 23° C. for 24 hr, washed with H2O, and dried again at 23° C., resulting in a thin film containing 12 μg of collagen that was tightly bound to the bottom of the wells. Enzymatic reactions of the collagenase I (with and without peptide inhibitors) against the collagen films were carried out in quadruplicate at 24° C. for 16 h. The digested portion of the film was washed away, while the undigested portion was fixed for 3 h with 0.1% Coomassie brilliant blue R in 10% acetic acid and 45% methanol, and the wells washed and dried.

Assay [3] has as its target T2, purified human synovial sPLA2 (human Type IIA sPLA2) (Homo sapiens, UniProt P14555).
T2 construct: purchased Cayman Chemicals, USA
T2 sequence (P14555 21-144): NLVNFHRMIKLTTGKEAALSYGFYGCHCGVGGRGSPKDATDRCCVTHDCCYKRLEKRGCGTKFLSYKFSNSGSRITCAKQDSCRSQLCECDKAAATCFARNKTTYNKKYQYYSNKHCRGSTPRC
Kind of assay: sPLA2 inhibition, 3H-arachidonate-labelled E. coli membrane assay. As to conditions: fixed peptide concentration (5 μM); 3H-labelled E. coli membrane assay; read-out: % Inhibition (mean ± SD).
Procedure: In brief, [^3H] arachidonate-labeled E. coli membranes (0.005 mCi/mL; 5.8 μCi/μmol, NEN) were used as substrate, and 100 mM Tris-HCl—25 mM CaCl2, pH 7.5 solution as an assay buffer. The reaction mixture contained 20 μL of substrate, 0.85 pmole of purified human synovial sPLA2 (human Type IIA sPLA2, Cayman Chemicals, USA), and an increasing concentrations of the family of synthetic peptides derived from the sequence of PIP. The final volume of the reaction mixture was adjusted to 250 μL with an assay buffer. After incubation of the mixture (37° C., 1 h) and termination of the reaction with 750 μL of chilled PBS containing 1% BSA, microfuge tubes containing the samples were centrifuged (10,000 g at 4° C. for 15 min), and 500 μL aliquots of the supernatant taken to measure the amount of [^3H]-labeled arachidonate released from the E. coli membrane using liquid scintillation counting (Multipurpose Scintillation Counter LS 6500; Beckman, USA). As controls, sPLA2 was pre-incubated with the assay buffer alone. All samples, including controls, were performed in triplicate and plotted as the percentage inhibition relative to negative controls.
A sigmoid dose response curve was generated to allow calculation of the IC50 values. All samples were performed in triplicate. Results were analyzed by nonlinear regression with GraphPad Prism (version 2.01) and expressed as the percentage of inhibition relative to control values.

As to `CC[C@H](C)[C@H](NC(=O)[C@H](CC(=O)O)NC(=O)[C@@H](N)C(C)C)C(=O)N[C@@H](Cc1c[nH]cn1)C(=O)N[C@H](C(=O)N[C@@H](Cc1c[nH]c2ccccc12)C(=O)N[C@@H](CC(=O)O)C(=O)NCC(=O)N[C@H](C(=O)O)C(C)C)C(C)C` [PIP [59-67] monomer] (H-VDIHVWDGV-OH; N-terminus and C-terminus assumed), in assay [1], the “MMP-2 gelatinase activity (zymogram densitometry) vs control” value was “did not show any significant difference from the control”. In addition, the “Collagenase (% Inhibition)” value in assay [2] was 34.2 ± 4.7%. Also, the inhibition at 5 µM in assay [3] amounted to 56.4 ± 3.21%.
In the case of `CC[C@H](C)[C@H](NC(=O)[C@H](Cc1ccc(O)cc1)NC(=O)[C@@H](NC(=O)CNC(=O)[C@H](CC(=O)O)NC(=O)[C@H](Cc1c[nH]c2ccccc12)NC(=O)[C@@H](NC(=O)[C@H](Cc1c[nH]cn1)NC(=O)[C@@H](NC(=O)[C@H](CC(=O)O)NC(=O)[C@@H](NC(=O)[C@H](CCCNC(=N)N)NC(=O)CNC(=O)[C@@H](N)CC(C)C)C(C)C)[C@@H](C)CC)C(C)C)C(C)C)C(=O)N[C@@H](CCCNC(=N)N)C(=O)NCC(=O)N[C@@H](CCCNC(=N)N)C(=O)O` [P-NT.II] (H-LGRVDIHVWDGVYIRGR-OH; N-terminus and C-terminus assumed), the “MMP-2 gelatinase activity (zymogram densitometry) vs control” value in assay [1] is “did not show any significant difference from the control”. In addition, the IC50 in assay [2] (collagen thin film method, FIG. 2, read-out: IC50 (mean±SD), collagenase I (MMP-1)) came out at 8.43 ± 1.17 µM. Also, the “Collagenase (% Inhibition)” value in assay [2] was 64.2 ± 5.6% and 64.2 ± 5.5%.
